From patent US20090068243A1, “Novel formulations for delivery of antiviral peptide therapeutics” (priority 2007, published 2009)

How the values were obtained:
[1] = Intravenous pharmacokinetics in cynomolgus monkeys; type: in vivo, cynomolgus monkeys (Macaca fasicularis); details: for clearance / half-life: cynomolgus monkey, plasma, iv, dosed intravenously; for half-life: read-out: Half-life (t ½; hr) (converted); for biological half-life relative to base sequence, in words: comment on Table 2
Description: For determining pharmacokinetic properties, an HIV fusion inhibitor peptide or a base sequence from which an HIV fusion inhibitor peptide is derived was dosed intravenously in cynomolgus monkeys (Macaca fasicularis) (other animal models may be used for determining pharmacokinetic properties, as known in the art). At various times post-dose, blood samples were drawn and plasma isolated by centrifugation. Plasma samples were stored frozen until analysis by LC-MS (liquid chromatography/mass spectrometry) in the electrospray, positive-ion mode. An HIV fusion inhibitor or base sequence was eluted from a C18 or C8 HPLC column with a gradient of acetonitrile in a buffer of 10 mM ammonium acetate, pH 6.8. At the time of analysis, plasma samples were deproteinated with either two or three volumes of acetonitrile containing 0.5% formic acid. Duplicate calibration standards in cynomolgus plasma samples were prepared at the same time as the samples and analyzed before and after the samples containing either HIV fusion inhibitor peptide or base sequence. Pharmacokinetic properties were calculated from the plasma concentration-time data using either mono-exponential or bi-exponential mathematical models. Models were derived by non-linear least squares optimization. A 1/C^2 weighting of concentrations was used. The following equations were used to calculate area-under the plasma concentration vs. time curve (AUC), total body clearance (Cl), and terminal elimination half-life (t ½).
Where A and B are intercepts and a and b are the rate constants of the exponential equations describing the distribution and elimination phases, respectively. When mono-exponential models were used, the “A” and “a” properties were eliminated.
Cl=Dose/AUC (expressed in L/K/hr)
t½=0.6903/b (expressed in hr)

[2] = Stability in aqueous solution (PBS), peptide remaining in solution by HPLC; type: physicochemical; details: 10 mg/ml in PBS, about pH 7.3 to 7.5, 37° C.
HIV-Res = type: cell-based, HIV-1; details: resistant viral isolate "Res"
Source text: Assessment of biological properties included measurement of antiviral activity against HIV-1 strains. In determining antiviral activity (e.g., one measure being the ability to inhibit transmission of HIV to a target cell) of the HIV fusion inhibitor peptides, an in vitro assay which has been shown, by data generated using peptides derived from the HR regions of HIV gp41, to be predictive of antiviral activity observed in vivo was used. […] These assays score for reduction of infectious virus titer employing the indicator cell lines MAGI or the CCR5 expressing derivative cMAGI. Both cell lines exploit the ability of HIV-1 tat to transactivate the expression of a β-galactosidase reporter gene driven by the HIV-LTR. The β-gal reporter has been modified to localize in the nucleus and can be detected with the X-gal substrate as intense nuclear staining within a few days of infection. […] The number of infected cells for each control and peptide dilution was determined with the CCD-imager, and then the IC50 was calculated (expressed in μg/ml).
Viruses resistant to the antiviral activity of a peptide consisting of a base sequence can be produced using standard laboratory methods. […] The cultures are maintained and monitored until syncytia are present. […] The second round of culture is maintained and monitored for presence of virus resistant to the antiviral activity of the peptide. […]

HIV-IIIB = details: 50% reduction in infectious virus titer
Source text: Assessment of biological properties included measurement of antiviral activity against HIV-1 strains. […] These assays score for reduction of infectious virus titer employing the indicator cell lines MAGI or the CCR5 expressing derivative cMAGI. Both cell lines exploit the ability of HIV-1 tat to transactivate the expression of a β-galactosidase reporter gene driven by the HIV-LTR. The β-gal reporter has been modified to localize in the nucleus and can be detected with the X-gal substrate as intense nuclear staining within a few days of infection. The number of stained nuclei can thus be interpreted as equal to the number of infectious virions in the challenge inoculum if there is only one round of infection prior to staining. […] In the MAGI and cMAGI assays, a 50% reduction in infectious titer (Vn/Vo=0.5) is significant, and provides the primary cutoff value for assessing antiviral activity (“IC50” is defined as the concentration of active ingredient resulting in a 50% reduction in infectious virus titer). […] The number of infected cells for each control and peptide dilution was determined with the CCD-imager, and then the IC50 was calculated (expressed in μg/ml).

[3] = Helicity by circular dichroism (CD); type: physicochemical; details: usually percent helicity at 10 μM, 25° C.
Description: (§1) Assessment of biophysical parameters included measurement of helicity and thermal stability. Helicity was assessed by circular dichroism (“CD”) as follows. Briefly, CD spectra were obtained using a spectrometer equipped with a thermoelectric temperature controller. The spectra was obtained at 25° C. with 0.5 nanometer (nm) steps from 200 to 260 nm, with a 1.5 nm bandwith, and a typical averaging time of 4 seconds/step. After the cell/buffer blank was subtracted, spectra were smoothed using a third-order least-squares polynomial fit with a conservative window size to give random residuals. Raw ellipticity values were converted to mean residue ellipticity using standard methods, and plotted was the wavelength (from 200 to 260 nm) versus [θ]×10−3 (degrees cm^2/dmol). Percent helicity values were then calculated using standard methods (usually expressed as percent helicity at 10 μM, 25° C.). Assessment of thermal stability was performed by monitoring the change in CD signal at 222 nm as temperature was raised in 2° C. steps, with 1 minute equilibration times. The stability for each sample (e.g., HIV fusion inhibitor peptide), as represented by the Tm value, is the temperature corresponding to the maximum value of the first derivative of the thermal transition.

[4] = Thermal stability (Tm) by CD signal at 222 nm; type: physicochemical; details: CD at 222 nm, maximum of first derivative of thermal transition
Description: as §1

584.000098 = system: 584.000098
Source text: (§2) Assessment of biological properties included measurement of antiviral activity against HIV-1 strains. […] These assays score for reduction of infectious virus titer employing the indicator cell lines MAGI or the CCR5 expressing derivative cMAGI. Both cell lines exploit the ability of HIV-1 tat to transactivate the expression of a β-galactosidase reporter gene driven by the HIV-LTR. The β-gal reporter has been modified to localize in the nucleus and can be detected with the X-gal substrate as intense nuclear staining within a few days of infection. The number of stained nuclei can thus be interpreted as equal to the number of infectious virions in the challenge inoculum if there is only one round of infection prior to staining. […] In the MAGI and cMAGI assays, a 50% reduction in infectious titer (Vn/Vo=0.5) is significant, and provides the primary cutoff value for assessing antiviral activity (“IC50” is defined as the concentration of active ingredient resulting in a 50% reduction in infectious virus titer). […] The peptide (in the respective dilution) was added to the cMAGI or MAGI cells, followed by the virus inocula; and 24 hours later, an inhibitor of infection and cell-cell fusion (e.g., SEQ ID NO:2 (enfuvirtide)) was added to prevent secondary rounds of HIV infection and cell-cell virus spread. The cells were cultured for 2 more days, and then fixed and stained with the X-gal substrate to detect HIV-infected cells. The number of infected cells for each control and peptide dilution was determined with the CCD-imager, and then the IC50 was calculated (expressed in μg/ml).
(§3) In particular, in vitro resistance comparison studies were performed between the novel SEQ ID NO:9 compound of interest and established antiviral agent SEQ ID NO:2, described in detail as follows: MT2 cells were infected with virus isolates (IIIB, 030, 060 and 098) and cultured in increasing concentrations of SEQ ID NO:2 (enfuvirtide) or SEQ ID NO:9 to select for resistance. The initial peptide concentration was approximately 2 times the IC50 of each peptide against the corresponding wild type isolate. Peptide concentrations were maintained by adding fresh peptide every 1-3 days. Cultures were monitored for cytopathic effect (CPE) using standard techniques and when maximal CPE was achieved, a small aliquot of virus was used for subsequent rounds of infection. Peptide concentrations were increased 2 to 4-fold depending on the length of time in culture when compared to the growth rate of wild type virus. During the course of selection, peptide-free virus stocks were also collected. Peptide-free virus stocks were characterized for gp41 genotypic changes by dideoxy sequencing chemistries and phenotypic susceptibility was determined using a cMAGI infectivity assay.

584.000030 = system: 584.000030
Source text: as §2, §3

584.000060 = system: 584.000060
Source text: as §2, §3

[5] = system: virus isolates (IIIB, 030, 060 and 098); details: Geometric Mean of four isolates
Source text: as §2, §3

IIIB = details: starting virus isolate IIIB
Source text: as §2, §3

## CC[C@H](C)[C@H](NC(=O)[C@H](C)NC(=O)[C@H](CCCNC(=N)N)NC(=O)[C@H](CC(=O)O)NC(=O)[C@H](Cc1c[nH]c2ccccc12)NC(=O)[C@H](C)NC(=O)[C@H](CCC(=O)O)NC(=O)[C@H](Cc1c[nH]c2ccccc12)NC(=O)[C@@H](NC(=O)[C@@H](NC(C)=O)[C@@H](C)O)[C@@H](C)O)C(=O)N[C@@H](C)C(=O)N[C@@H](CCC(=O)O)C(=O)N[C@@H](Cc1ccc(O)cc1)C(=O)N[C@@H](C)C(=O)N[C@@H](C)C(=O)N[C@@H](CCCNC(=N)N)C(=O)N[C@H](C(=O)N[C@@H](CCC(=O)O)C(=O)N[C@@H](C)C(=O)N[C@@H](CC(C)C)C(=O)N[C@H](C(=O)N[C@@H](CCCNC(=N)N)C(=O)N[C@@H](C)C(=O)N[C@@H](C)C(=O)N[C@@H](CCC(N)=O)C(=O)N[C@@H](CCC(=O)O)C(=O)N[C@@H](CCC(N)=O)C(=O)N[C@@H](CCC(N)=O)C(=O)N[C@@H](CCC(=O)O)C(=O)N[C@@H](CCCCN)C(=O)N[C@@H](CC(N)=O)C(=O)N[C@@H](CCC(=O)O)C(=O)N[C@@H](C)C(=O)N[C@@H](C)C(=O)N[C@@H](CC(C)C)C(=O)N[C@@H](CCCNC(=N)N)C(=O)N[C@@H](CCC(=O)O)C(=O)N[C@@H](CC(C)C)C(N)=O)[C@@H](C)CC)[C@@H](C)CC [SEQ ID NO:5]
[1]
  clearance: > 0.667 mL/min/kg
  half-life: 6 h
[2]; time point of 1 week
  peptide remaining detectable in solution: less than 80%

## Ac-TTWEAWDRAIAEYAARIEALIRAAQEQQEKLEAALREL-NH2 (N-terminus and C-terminus assumed) [SEQ ID NO:7]
[1]
  biological half-life relative to base sequence, in words: increased biological half-life
  clearance: < 0.333 mL/min/kg
  half-life: 17 h

## Ac-TTWEAWDRAIAEYAARIEALIRALQEQQEKNEAALREL-NH2 (N-terminus and C-terminus assumed) [SEQ ID NO:6]
[1]
  biological half-life relative to base sequence, in words: increased biological half-life
  clearance: < 0.333 mL/min/kg
  half-life: 15 h

## Ac-TTWEAWDRAIAEYAARIEALLRAAQEQQEKLEAALREL-NH2 [SEQ ID NO:10, TTWEAWDRAIAEYAARIEALLRAAQEQQEKLEAALREL]
HIV-Res
  Antiviral Activity (μg/ml) HIV-Res IC50: <0.10 µg/mL
[1]
  biological half-life relative to base sequence, in words: increased biological half-life
  clearance: < 0.333 mL/min/kg
  half-life: 21 h
HIV-IIIB
  Antiviral Activity (μg/ml) HIV-IIIB IC50: <0.10 µg/mL
[3]
  Helicity (%): 77%
[4]
  Tm (° C.): 75 °C

## Ac-TTWEAWDRAIAEYAARIEALLRAAQEQQEKNEAALREL-NH2 (N-terminus and C-terminus assumed) [SEQ ID NO:8]
[1]
  biological half-life relative to base sequence, in words: does not exhibit the dramatic increase in half-life
  clearance: > 0.667 mL/min/kg
  half-life: 7 h

## enfuvirtide
[2]
  stability of solution, in words: becomes unstable after just several hours
584.000098; starting virus isolate 584.000098
  Fold Change in IC50: 912
584.000098; starting virus isolate 584.000098, after selection
  Ending IC50: 45.575 µg/mL
584.000098; starting virus isolate 584.000098, before selection
  Starting IC50: 0.05 µg/mL
584.000030; starting virus isolate 584.000030
  Fold Change in IC50: 19
584.000030; starting virus isolate 584.000030, after selection
  Ending IC50: 0.798 µg/mL
584.000030; starting virus isolate 584.000030, before selection
  Starting IC50: 0.042 µg/mL
584.000060; starting virus isolate 584.000060
  Fold Change in IC50: 7
584.000060; starting virus isolate 584.000060, after selection
  Ending IC50: 0.068 µg/mL
584.000060; starting virus isolate 584.000060, before selection
  Starting IC50: 0.01 µg/mL
[5]
  Fold Change in IC50: 42
[5]; after selection
  Ending IC50: 0.797 µg/mL
[5]; before selection
  Starting IC50: 0.019 µg/mL
IIIB
  Fold Change in IC50: 27
IIIB; after selection
  Ending IC50: 0.163 µg/mL
IIIB; before selection
  Starting IC50: 0.006 µg/mL
